Laboratory results published in ChEMBL document CHEMBL4177603 (Bioorg Med Chem Lett, 2017).

What was measured:
[1] = species on record: Rattus norvegicus; experiment: Displacement of [3H]GABA from rat brain GABA transporter at 10 uM after 30 mins by scintillation counting method
[2] = molecular target: Angiotensin-converting enzyme (Homo sapiens) (UniProt P12821); experiment: Inhibition of ACE (unknown origin) at 10 uM by radioligand binding assay relative to control
[3] = molecular target: Sodium channel protein type 10 subunit alpha (Homo sapiens, UniProt Q9Y5Y9); experiment: Inhibition of human Nav1.8 expressed in HEK cells by automated patchXpress electrophysiology method; type: cell-based
[4] = molecular target: Sodium channel protein type 9 subunit alpha (Rattus norvegicus, UniProt O08562); experiment: Inhibition of rat Nav1.7 expressed in HEK cells by patch clamp electrophysiology method; type: cell-based
[5] = Renal clearance in dog at 0.3 mg/kg, iv via infusion for 0.5 hrs; type: ADME, organism-based, Canis lupus familiaris, Kidney; settings: in vivo
[6] = Half-life in rat at 0.3 mg/kg, iv via infusion for 1 hr; type: ADME, organism-based; settings: in vivo
[7] = Unbound clearance in iv dosed mouse plasma; type: ADME, organism-based; settings: in vivo
[8] = molecular target: Cytochrome P450 2D6 (Homo sapiens, UniProt P10635); experiment: Inhibition of CYP2D6 (unknown origin); type: ADME
Chain of Cytochrome P450 2D6 (P10635 whole entry): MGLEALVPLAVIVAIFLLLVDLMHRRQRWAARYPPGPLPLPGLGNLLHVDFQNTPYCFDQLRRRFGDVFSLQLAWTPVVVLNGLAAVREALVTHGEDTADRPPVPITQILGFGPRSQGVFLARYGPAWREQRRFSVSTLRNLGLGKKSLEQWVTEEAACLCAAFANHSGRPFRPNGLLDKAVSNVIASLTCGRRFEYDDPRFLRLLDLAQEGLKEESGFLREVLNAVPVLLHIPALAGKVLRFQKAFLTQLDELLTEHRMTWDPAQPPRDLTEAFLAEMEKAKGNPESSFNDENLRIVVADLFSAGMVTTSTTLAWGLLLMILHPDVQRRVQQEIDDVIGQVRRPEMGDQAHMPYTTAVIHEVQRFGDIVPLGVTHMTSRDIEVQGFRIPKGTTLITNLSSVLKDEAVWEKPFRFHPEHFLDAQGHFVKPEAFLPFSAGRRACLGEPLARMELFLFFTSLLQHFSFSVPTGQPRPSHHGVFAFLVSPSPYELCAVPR

[9] = Protein binding in human plasma assessed as fraction unbound; type: ADME, cell-free
[10] = Intrinsic clearance in human hepatocytes assessed per million cells; type: ADME, cell-based, Hepatocyte; settings: read-out: CLH
[11] = molecular target: Sodium channel protein type 11 subunit alpha (Homo sapiens, UniProt Q9UI33); experiment: Inhibition of human Nav1.9 expressed in HEK cells by automated patchXpress electrophysiology method; type: cell-based
[12] = molecular target: Adenosine receptor A2a (Homo sapiens) (UniProt P29274); experiment: Agonist activity at recombinant human full-length adenosine A2a receptor expressed in HEK293 cells assessed as effect on impedance at 10 uM by cellular dielectric spectroscopic method relative to control; type: functional, cell-based
Chain of Adenosine receptor A2a (Homo sapiens) (P29274 whole entry): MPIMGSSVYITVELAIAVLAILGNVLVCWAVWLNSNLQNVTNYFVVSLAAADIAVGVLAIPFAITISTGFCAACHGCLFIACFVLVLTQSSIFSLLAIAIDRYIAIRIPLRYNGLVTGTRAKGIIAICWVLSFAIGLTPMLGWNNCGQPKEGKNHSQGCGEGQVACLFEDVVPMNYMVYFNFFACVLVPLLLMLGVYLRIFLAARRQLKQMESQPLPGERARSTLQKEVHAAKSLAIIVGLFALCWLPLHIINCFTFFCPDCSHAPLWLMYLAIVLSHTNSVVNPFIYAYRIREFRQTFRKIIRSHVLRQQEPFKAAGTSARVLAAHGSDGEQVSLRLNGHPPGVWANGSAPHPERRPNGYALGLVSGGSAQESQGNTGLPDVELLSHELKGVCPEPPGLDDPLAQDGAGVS

[13] = molecular target: Alpha-2A adrenergic receptor (Homo sapiens) (UniProt P08913); experiment: Agonist activity at recombinant human alpha2a receptor at 10 uM relative to control; type: functional
[14] = molecular target: Type-1 angiotensin II receptor (Homo sapiens) (UniProt P30556); experiment: Agonist activity at recombinant human AT1 receptor expressed in HEK293 cells assessed as increase in calcium flux at 10 uM by spectrophotometric method relative to control; type: functional, cell-based
[15] = molecular target: D(1A) dopamine receptor (Homo sapiens) (UniProt P21728); experiment: Agonist activity at recombinant human D1 receptor expressed in CHOK1 cells assessed as increase in cAMP accumulation at 10 uM after 30 mins by HTRF assay relative to control; type: functional, cell-based
Chain of D(1A) dopamine receptor (Homo sapiens) (P21728 whole entry): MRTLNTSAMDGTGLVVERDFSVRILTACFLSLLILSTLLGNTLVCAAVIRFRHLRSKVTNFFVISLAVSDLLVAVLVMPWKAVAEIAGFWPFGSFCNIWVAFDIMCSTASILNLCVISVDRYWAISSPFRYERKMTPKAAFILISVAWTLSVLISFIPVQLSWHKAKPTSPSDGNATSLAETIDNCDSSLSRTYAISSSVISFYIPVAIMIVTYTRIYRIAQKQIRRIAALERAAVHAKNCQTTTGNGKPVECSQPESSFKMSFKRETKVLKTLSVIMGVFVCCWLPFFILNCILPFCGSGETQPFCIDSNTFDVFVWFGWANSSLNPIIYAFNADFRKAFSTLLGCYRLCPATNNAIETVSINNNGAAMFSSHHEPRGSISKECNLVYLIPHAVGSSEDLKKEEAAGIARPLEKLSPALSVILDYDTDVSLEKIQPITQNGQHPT

[16] = molecular target: Delta-type opioid receptor (Homo sapiens) (UniProt P41143); experiment: Agonist activity at human DOR expressed in Chem1 cells assessed as increase in calcium flux at 10 uM by fluorimetric method relative to control; type: functional, cell-based
Chain of Delta-type opioid receptor (Homo sapiens) (P41143 whole entry): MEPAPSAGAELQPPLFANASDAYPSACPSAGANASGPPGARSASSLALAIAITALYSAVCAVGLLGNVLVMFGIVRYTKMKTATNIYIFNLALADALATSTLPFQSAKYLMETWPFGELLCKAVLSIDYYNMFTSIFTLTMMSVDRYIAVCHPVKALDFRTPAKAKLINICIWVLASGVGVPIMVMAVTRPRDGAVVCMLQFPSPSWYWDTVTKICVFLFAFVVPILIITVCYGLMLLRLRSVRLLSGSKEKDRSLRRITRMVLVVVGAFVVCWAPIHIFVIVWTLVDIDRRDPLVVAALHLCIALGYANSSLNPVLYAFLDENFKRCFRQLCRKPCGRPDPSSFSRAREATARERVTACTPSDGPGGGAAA

[17] = molecular target: D(1A) dopamine receptor (Homo sapiens) (UniProt P21728); experiment: Antagonist activity at recombinant human D1 receptor expressed in CHOK1 cells assessed as inhibition of dopamine-induced cAMP accumulation at 10 uM after 30 mins by HTRF assay relative to control; type: functional, cell-based
[18] = molecular target: GABA-A receptor; alpha-1/beta-2/gamma-2 (Homo sapiens) (UniProt P14867+P47870+P18507); experiment: Displacement of [3H]muscimol from recombinant human GABAalpha1beta2gamma2 at 10 uM measured after 120 mins by scintillation counting method; type: protein-complex assay
[19] = species on record: Rattus norvegicus; experiment: Displacement of [3H]AMPA from rat brain AMPA receptor at 10 uM after 60 mins by scintillation counting method
[20] = species on record: Homo sapiens; experiment: Inhibition of neuronal type nAChR (unknown origin) at 10 uM by radioligand binding assay relative to control
[21] = molecular target: Acetylcholinesterase (Homo sapiens) (UniProt P22303); experiment: Inhibition of recombinant human AChE at 10 uM using acetylthiocholine as substrate measured after 30 mins by spectrophotometric method relative to control
Chain of Acetylcholinesterase (Homo sapiens) (P22303 whole entry): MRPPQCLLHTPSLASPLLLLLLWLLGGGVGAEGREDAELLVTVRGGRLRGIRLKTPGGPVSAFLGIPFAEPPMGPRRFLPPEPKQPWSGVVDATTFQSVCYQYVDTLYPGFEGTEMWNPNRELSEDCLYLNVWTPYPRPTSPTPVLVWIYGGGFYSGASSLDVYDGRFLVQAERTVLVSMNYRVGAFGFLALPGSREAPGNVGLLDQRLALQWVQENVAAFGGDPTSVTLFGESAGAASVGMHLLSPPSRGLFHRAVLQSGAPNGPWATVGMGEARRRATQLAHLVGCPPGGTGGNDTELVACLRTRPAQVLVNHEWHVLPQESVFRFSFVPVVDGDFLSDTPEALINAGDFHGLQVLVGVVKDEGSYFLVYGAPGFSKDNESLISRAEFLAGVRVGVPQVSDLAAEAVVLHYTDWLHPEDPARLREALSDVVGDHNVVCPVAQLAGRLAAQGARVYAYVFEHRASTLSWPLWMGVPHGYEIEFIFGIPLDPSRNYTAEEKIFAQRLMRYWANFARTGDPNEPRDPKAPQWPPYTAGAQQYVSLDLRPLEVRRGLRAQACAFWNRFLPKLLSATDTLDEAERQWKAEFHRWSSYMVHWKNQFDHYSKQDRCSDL

[22] = molecular target: monoamine oxidase (Homo sapiens, UniProt P21397+P27338); experiment: Inhibition of monoamine oxidase (unknown origin) at 10 uM relative to control; type: protein assay
[23] = molecular target: Glucocorticoid receptor (Homo sapiens) (UniProt P04150); experiment: Displacement of [3H]dexamethasone from human glucocorticoid receptor at 10 uM after 360 mins by scintillation counting method
Chain of Glucocorticoid receptor (Homo sapiens) (P04150 whole entry): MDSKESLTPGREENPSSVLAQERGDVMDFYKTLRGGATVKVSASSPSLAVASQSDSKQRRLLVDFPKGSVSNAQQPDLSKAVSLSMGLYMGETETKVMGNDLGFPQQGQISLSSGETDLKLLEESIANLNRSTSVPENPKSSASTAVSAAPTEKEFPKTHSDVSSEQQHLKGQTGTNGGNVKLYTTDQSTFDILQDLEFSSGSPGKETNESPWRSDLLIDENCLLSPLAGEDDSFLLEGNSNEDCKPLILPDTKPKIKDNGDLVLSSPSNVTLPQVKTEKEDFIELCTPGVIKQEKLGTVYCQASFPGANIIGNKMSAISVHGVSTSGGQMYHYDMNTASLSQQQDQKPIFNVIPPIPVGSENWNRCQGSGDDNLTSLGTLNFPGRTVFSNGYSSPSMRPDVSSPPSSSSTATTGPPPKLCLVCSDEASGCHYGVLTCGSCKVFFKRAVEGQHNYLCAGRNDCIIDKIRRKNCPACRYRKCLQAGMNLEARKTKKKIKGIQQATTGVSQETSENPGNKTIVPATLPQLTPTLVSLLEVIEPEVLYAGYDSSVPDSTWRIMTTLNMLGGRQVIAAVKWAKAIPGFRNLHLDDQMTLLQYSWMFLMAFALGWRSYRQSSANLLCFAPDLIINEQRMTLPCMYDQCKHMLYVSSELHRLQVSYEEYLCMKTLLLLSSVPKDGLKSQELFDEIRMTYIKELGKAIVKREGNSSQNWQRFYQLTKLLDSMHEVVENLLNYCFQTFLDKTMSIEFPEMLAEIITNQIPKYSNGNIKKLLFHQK

[24] = molecular target: T1, Alpha-1A adrenergic receptor (Homo sapiens) (UniProt P35348); experiment: Displacement of [3H]prazosin from recombinant human alpha1a receptor at 10 uM after 60 mins by scintillation counting method
T1 sequence (whole entry): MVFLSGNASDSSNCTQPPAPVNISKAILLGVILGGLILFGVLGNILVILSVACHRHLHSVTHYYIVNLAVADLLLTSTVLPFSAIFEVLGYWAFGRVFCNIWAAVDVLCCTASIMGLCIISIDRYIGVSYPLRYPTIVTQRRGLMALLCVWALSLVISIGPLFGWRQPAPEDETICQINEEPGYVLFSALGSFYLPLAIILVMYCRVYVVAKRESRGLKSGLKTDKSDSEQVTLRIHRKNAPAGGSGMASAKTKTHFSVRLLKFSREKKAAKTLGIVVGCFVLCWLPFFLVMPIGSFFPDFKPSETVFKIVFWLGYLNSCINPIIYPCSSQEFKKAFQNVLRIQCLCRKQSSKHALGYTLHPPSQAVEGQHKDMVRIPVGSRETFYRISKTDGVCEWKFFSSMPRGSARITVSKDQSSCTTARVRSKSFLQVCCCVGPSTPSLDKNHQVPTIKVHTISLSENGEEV

[25] = molecular target: T2, Muscarinic acetylcholine receptor M1 (Homo sapiens) (UniProt P11229); experiment: Displacement of [3H]pirenzepine from recombinant human M1 receptor at 10 uM after 60 mins by scintillation counting method
T2 sequence (whole entry): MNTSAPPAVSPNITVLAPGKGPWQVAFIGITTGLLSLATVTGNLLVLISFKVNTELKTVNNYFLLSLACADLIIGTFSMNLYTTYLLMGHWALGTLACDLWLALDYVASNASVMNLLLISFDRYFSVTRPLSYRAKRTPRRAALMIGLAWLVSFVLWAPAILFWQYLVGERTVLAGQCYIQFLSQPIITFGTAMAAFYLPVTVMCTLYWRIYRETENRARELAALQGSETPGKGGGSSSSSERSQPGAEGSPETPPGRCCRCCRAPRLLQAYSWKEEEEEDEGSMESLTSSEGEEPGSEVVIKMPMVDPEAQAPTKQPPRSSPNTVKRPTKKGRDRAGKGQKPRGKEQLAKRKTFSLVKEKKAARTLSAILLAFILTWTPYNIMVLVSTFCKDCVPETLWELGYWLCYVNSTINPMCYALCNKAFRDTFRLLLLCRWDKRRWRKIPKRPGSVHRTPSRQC

[26] = molecular target: Mu-type opioid receptor (Homo sapiens) (UniProt P35372); experiment: Displacement of [3H]DAMGO from recombinant human MOR at 10 uM after 120 mins by scintillation counting method
Chain of Mu-type opioid receptor (Homo sapiens) (P35372 whole entry): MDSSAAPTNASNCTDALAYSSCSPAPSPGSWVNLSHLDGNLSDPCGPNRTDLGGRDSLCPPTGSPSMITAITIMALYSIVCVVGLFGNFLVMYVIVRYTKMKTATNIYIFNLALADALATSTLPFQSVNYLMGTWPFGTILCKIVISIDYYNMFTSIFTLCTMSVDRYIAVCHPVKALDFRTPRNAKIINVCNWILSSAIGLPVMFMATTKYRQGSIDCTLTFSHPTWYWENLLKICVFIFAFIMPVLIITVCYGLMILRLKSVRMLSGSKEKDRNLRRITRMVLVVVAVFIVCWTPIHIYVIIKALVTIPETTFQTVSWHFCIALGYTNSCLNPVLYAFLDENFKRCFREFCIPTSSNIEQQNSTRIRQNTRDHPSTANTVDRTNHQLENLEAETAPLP

[27] = molecular target: Voltage-gated inwardly rectifying potassium channel KCNH2 (Homo sapiens, UniProt Q12809); experiment: Displacement of [3H]Dofetilide from recombinant human ERG after 60 mins by scintillation counting method
[28] = Displacement of [3H]diltiazem from L-type calcium channel diltiazem binding site in rat brain after 120 mins by scintillation counting method
[29] = Protein binding in dog plasma assessed as fraction unbound at 2 uM; type: ADME, cell-free, Canis lupus familiaris

Chain of Angiotensin-converting enzyme (Homo sapiens) (P12821 whole entry): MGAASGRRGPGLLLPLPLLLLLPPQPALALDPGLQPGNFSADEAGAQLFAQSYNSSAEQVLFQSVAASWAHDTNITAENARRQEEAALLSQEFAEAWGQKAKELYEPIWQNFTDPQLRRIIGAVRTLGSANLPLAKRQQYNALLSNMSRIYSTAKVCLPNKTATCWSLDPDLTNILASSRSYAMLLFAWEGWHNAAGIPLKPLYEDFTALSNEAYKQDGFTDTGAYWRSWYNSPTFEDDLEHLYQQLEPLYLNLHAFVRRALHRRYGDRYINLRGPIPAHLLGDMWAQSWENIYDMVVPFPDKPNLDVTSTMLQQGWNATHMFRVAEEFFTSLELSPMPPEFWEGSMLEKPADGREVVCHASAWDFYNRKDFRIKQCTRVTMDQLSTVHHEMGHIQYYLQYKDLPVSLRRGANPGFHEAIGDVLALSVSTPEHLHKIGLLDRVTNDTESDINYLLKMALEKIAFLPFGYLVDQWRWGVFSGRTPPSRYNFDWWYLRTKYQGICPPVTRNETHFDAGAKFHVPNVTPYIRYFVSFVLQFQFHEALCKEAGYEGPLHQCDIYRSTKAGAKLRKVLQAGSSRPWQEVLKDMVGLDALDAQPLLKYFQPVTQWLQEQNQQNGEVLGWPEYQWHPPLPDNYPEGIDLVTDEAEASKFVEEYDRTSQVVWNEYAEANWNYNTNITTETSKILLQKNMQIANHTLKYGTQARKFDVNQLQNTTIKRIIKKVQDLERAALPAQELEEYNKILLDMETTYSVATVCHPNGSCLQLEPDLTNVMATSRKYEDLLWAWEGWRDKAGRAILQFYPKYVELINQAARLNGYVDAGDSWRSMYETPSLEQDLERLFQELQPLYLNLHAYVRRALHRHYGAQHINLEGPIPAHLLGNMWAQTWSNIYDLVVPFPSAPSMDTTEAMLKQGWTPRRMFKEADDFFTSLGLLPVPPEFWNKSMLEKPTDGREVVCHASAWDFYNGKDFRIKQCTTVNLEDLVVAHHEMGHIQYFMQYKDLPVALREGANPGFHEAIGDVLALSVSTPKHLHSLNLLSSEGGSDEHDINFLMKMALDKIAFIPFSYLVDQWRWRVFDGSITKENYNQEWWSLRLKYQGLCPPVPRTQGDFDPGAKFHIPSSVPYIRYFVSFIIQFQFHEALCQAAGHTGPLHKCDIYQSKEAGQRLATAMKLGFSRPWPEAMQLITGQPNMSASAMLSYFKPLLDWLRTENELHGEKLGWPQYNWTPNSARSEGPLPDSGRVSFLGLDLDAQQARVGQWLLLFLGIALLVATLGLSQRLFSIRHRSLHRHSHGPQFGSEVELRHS

Q: Which inhibition [1] does the source give for `N#Cc1cc(S(=O)(=O)Nc2ncns2)ccc1Oc1ccc(-c2cccc(C(F)(F)F)c2)cc1-c1ccnc(CNCCC2CCNCC2)c1` here?
A: 5%

Q: And the inhibition [2]?
A: -8%

Q: And the IC50 [3]?
A: 10 to 26 µM

Q: And the IC50 [4]?
A: 75 nM

Q: And the CL renal at 0.5 h [5]?
A: 1.73 mL/day/kg

Q: And the half-life [6]?
A: 12.6 min

Q: And the CL free [7]?
A: 12989 mL/min/kg

Q: And the IC50 [8]?
A: 8.83 µM

Q: And the fraction unbound [9]?
A: 0.00497

Q: What about the hepatocyte CLint [10] of the same compound?
A: 6.5 µL/min/1e6 cells

Q: And the IC50 [11]?
A: > 10 µM

Q: And the Activity [12]?
A: -2%

Q: What about the Activity [13] of the same compound?
A: -7%

Q: And the Activity [14]?
A: -3%

Q: And the Activity [15]?
A: 6%

Q: And the Activity [16]?
A: -49%

Q: And the inhibition [17]?
A: 30%

Q: And the inhibition [18]?
A: 0%

Q: What about the inhibition [19] of the same compound?
A: -1%

Q: What about the inhibition [20] of the same compound?
A: 34%

Q: And the inhibition [21]?
A: 15%

Q: What about the inhibition at 10 µM [22] of the same compound?
A: 16%

Q: What about the inhibition [23] of the same compound?
A: 36.1%

Q: And the inhibition [24]?
A: -4%

Q: What about the inhibition [25] of the same compound?
A: 48%

Q: What about the inhibition [26] of the same compound?
A: 46%

Q: And the Ki [27]?
A: 1090 nM

Q: And the IC50 [28]?
A: 5.3 µM

Q: What about the Ki [28] of the same compound?
A: 4.12 µM

Q: And the fraction unbound at 2 µM [29]?
A: 0.003
